{"source": "DBAASP", "test_in_all_cases": "≥ marks a high value that may be exact or a test limit, other limits are often not marked, values filed in µg/mL are converted to µM", "key": {"[1]": {"system": "Streptococcus sobrinus ATCC 6715"}, "[2]": {"system": "Streptococcus mutans UA159"}, "[3]": {"system": "Streptococcus sanguinis ATCC 10556"}, "[4]": {"system": "Listeria monocytogenes DSM 20600"}, "[5]": {"system": "Listeria fleischmannii DSM 24998"}, "[6]": {"system": "Listeria grayi DSM 20601"}, "[7]": {"system": "Micrococcus luteus DSM 20030"}, "[8]": {"system": "Escherichia coli D31"}, "[9]": {"system": "Staphylococcus aureus"}, "[10]": {"system": "Salmonella typhimurium"}, "[11]": {"system": "Escherichia coli HB101"}, "[12]": {"system": "Bacillus subtilis"}, "[13]": {"system": "Pseudomonas aeruginosa"}, "[14]": {"system": "Candida albicans ATCC 36232"}, "[15]": {"system": "Escherichia coli ATCC 2592"}, "[16]": {"system": "Pseudomonas aeruginosa ATCC 9027"}, "[17]": {"system": "Staphylococcus aureus ATCC 6538"}, "[18]": {"system": "Staphylococcus aureus 1550"}, "[19]": {"system": "Micrococcus luteus ATCC 9341"}, "[20]": {"system": "Staphylococcus aureus ATCC 25923"}, "[21]": {"system": "Pseudomonas aeruginosa ATCC 27853"}, "[22]": {"system": "Streptococcus pneumoniae ATCC 49619"}, "[23]": {"system": "Bacillus subtilis BGSC 1A1"}, "[24]": {"system": "Escherichia coli ATCC 25922"}, "[25]": {"system": "Mycobacterium tuberculosis mc2-6230"}, "[26]": {"system": "Streptococcus mutans"}, "[27]": {"system": "Streptococcus pyogenes"}, "[28]": {"system": "Streptococcus agalactiae"}, "[29]": {"system": "Mycobacterium tuberculosis mc2-6020"}, "[30]": {"system": "Klebsiella pneumoniae"}, "[31]": {"system": "Candida albicans ATCC 64550"}, "[32]": {"system": "Staphylococcus aureus USA 300"}, "[33]": {"system": "Staphylococcus aureus ATCC 29737"}, "[34]": {"system": "Staphylococcus epidermidis ATCC 12228"}, "[35]": {"system": "Staphylococcus aureus USA 100"}, "[36]": {"system": "Candida albicans ATCC 90028"}, "[37]": {"system": "Pseudomonas aeruginosa H103"}, "[38]": {"system": "Staphylococcus aureus C623"}, "[39]": {"system": "Candida albicans C627"}, "[40]": {"system": "Escherichia coli ESBL 63103"}, "[41]": {"system": "Enterococcus faecium mic80"}, "[42]": {"system": "Pseudomonas aeruginosa 213"}, "[43]": {"system": "Pseudomonas aeruginosa LES400"}, "[44]": {"system": "Mycobacterium tuberculosis H37Rv"}, "[45]": {"system": "Mycobacterium tuberculosis CSU87"}}, "data": [{"compound": "NCCCC[C@H](NC(=O)[C@H](Cc1c[nH]c2ccccc12)NC(=O)[C@H](CCCCN)NC(=O)[C@H](CCCCN)NC(=O)[C@H](Cc1ccccc1)NC(=O)[C@H](Cc1ccccc1)NC(=O)[C@H](CCCCN)NC(=O)[C@H](CCCCN)NC(=O)[C@H](Cc1ccccc1)NC(=O)[C@H](Cc1ccccc1)NC(=O)[C@H](CCCCN)NC(=O)[C@@H](N)Cc1ccccc1)C(=O)O", "note": "[FKFFKKFFKKWK]", "values": [{"measurement": "MIC", "setting": "[1]", "result": 18.7, "unit": "µM"}, {"measurement": "MIC", "setting": "[2]", "result": 9.36, "unit": "µM"}, {"measurement": "MIC", "setting": "[3]", "result": 18.7, "unit": "µM"}]}, {"compound": "CC[C@H](C)[C@H](NC(=O)[C@H](C)NC(=O)[C@H](CCCCN)NC(=O)[C@H](CCCCN)NC(=O)[C@@H](NC(=O)CNC(=O)[C@H](CCC(=O)O)NC(=O)[C@H](CC(C)C)NC(=O)[C@H](CC(C)C)NC(=O)[C@H](CCCCN)NC(=O)CNC(=O)[C@H](Cc1c[nH]c2ccccc12)NC(=O)[C@H](Cc1ccccc1)NC(=O)CN)C(C)C)C(N)=O", "note": "[GFWGKLLEGVKKAI]", "values": [{"measurement": "MIC", "setting": "[4]", "result": 15, "unit": "µM"}, {"measurement": "MIC", "setting": "[5]", "result": 15, "unit": "µM"}, {"measurement": "MIC", "setting": "[6]", "result": 8, "unit": "µM"}, {"measurement": "MIC", "setting": "[7]", "result": 8, "unit": "µM"}, {"measurement": "MIC", "setting": "[8]", "result": 15, "unit": "µM"}]}, {"compound": "CC[C@H](C)[C@H](NC(=O)[C@@H](NC(=O)[C@@H]1CCCN1C(=O)[C@@H](NC(=O)[C@@H]1CCCN1C(=O)[C@H](CCCCN)NC(=O)[C@H](CCCCN)NC(=O)[C@H](CO)NC(=O)CN)C(C)C)[C@@H](C)CC)C(=O)N[C@@H](Cc1ccc(O)cc1)C(=O)N[C@H]1CSSC[C@@H](C(=O)N[C@@H](CCC(N)=O)C(=O)N[C@@H](CCCN=C(N)N)C(=O)N[C@@H](CCSC)C(=O)O)NC(=O)[C@H](CCCCN)NC(=O)CNC(=O)[C@H](CCCN=C(N)N)NC(=O)[C@H](CCCN=C(N)N)NC(=O)[C@H](CC(N)=O)NC1=O", "note": "[GSKKPVPIIYCNRRGKCQRM]", "values": [{"measurement": "MIC", "setting": "[9]", "result": 10.4, "unit": "µM"}, {"measurement": "MIC", "setting": "[10]", "result": 1.3, "unit": "µM"}, {"measurement": "MIC", "setting": "[11]", "result": 0.64, "unit": "µM"}, {"measurement": "MIC", "setting": "[12]", "result": 5.2, "unit": "µM"}, {"measurement": "MIC", "setting": "[13]", "result": 2.6, "unit": "µM"}]}, {"compound": "CC(C)[C@H](NC(=O)[C@H](CCCCN)NC(=O)[C@H](Cc1ccccc1)NC(=O)[C@@H](NC(=O)[C@@H](NC(=O)[C@H](CCCCN)NC(=O)[C@@H](N)Cc1cnc[nH]1)C(C)C)C(C)C)C(=O)N[C@@H](CCCCN)C(=O)N[C@@H](Cc1ccccc1)C(=O)N[C@@H](Cc1cnc[nH]1)C(=O)O", "note": "[HKVVFKVKFH]", "values": [{"measurement": "MIC", "setting": "[14]", "result": "≥ 78.8", "unit": "µM"}, {"measurement": "MIC", "setting": "[15]", "result": 15, "unit": "µM"}, {"measurement": "MIC", "setting": "[16]", "result": 8.67, "unit": "µM"}, {"measurement": "MIC", "setting": "[17]", "result": 12.6, "unit": "µM"}, {"measurement": "MIC", "setting": "[18]", "result": "≥ 49.7", "unit": "µM"}, {"measurement": "MIC", "setting": "[19]", "result": 7.88, "unit": "µM"}]}, {"compound": "CC[C@H](C)[C@H](N)C(=O)N[C@@H](CC(C)C)C(=O)N[C@@H](CO)C(=O)N[C@@H](CC(C)C)C(=O)N[C@@H](CCCN=C(N)N)C(=O)N[C@@H](Cc1c[nH]c2ccccc12)C(=O)N[C@@H](CCCN=C(N)N)C(=O)N[C@@H](Cc1c[nH]c2ccccc12)C(=O)N[C@@H](Cc1c[nH]c2ccccc12)C(=O)N[C@@H](CCCCN)C(=O)N[C@@H](Cc1c[nH]c2ccccc12)C(=O)N[C@@H](CCCCN)C(=O)N[C@@H](CCCCN)C(=O)O", "note": "[ILSLRWRWWKWKK]", "values": [{"measurement": "MIC", "setting": "[20]", "result": 68, "unit": "µM"}, {"measurement": "MIC", "setting": "[21]", "result": 32, "unit": "µM"}, {"measurement": "MIC", "setting": "[22]", "result": "≥ 32", "unit": "µM"}, {"measurement": "MIC", "setting": "[23]", "result": 2, "unit": "µM"}, {"measurement": "MIC", "setting": "[24]", "result": 8, "unit": "µM"}, {"measurement": "MIC", "setting": "[25]", "result": "≥ 32", "unit": "µM"}, {"measurement": "MIC", "setting": "[26]", "result": 4, "unit": "µM"}, {"measurement": "MIC", "setting": "[27]", "result": 4, "unit": "µM"}, {"measurement": "MIC", "setting": "[28]", "result": 4, "unit": "µM"}, {"measurement": "MIC", "setting": "[29]", "result": 4, "unit": "µM"}, {"measurement": "MIC", "setting": "[30]", "result": 32, "unit": "µM"}]}, {"compound": "CC[C@H](C)[C@H](N)C(=O)N[C@@H](CCCN=C(N)N)C(=O)N[C@H](C(=O)N[C@@H](CCCN=C(N)N)C(=O)N[C@H](C(=O)N[C@@H](CCCN=C(N)N)C(=O)N[C@H](C(=O)N[C@@H](CCCN=C(N)N)C(N)=O)[C@@H](C)CC)[C@@H](C)CC)[C@@H](C)CC", "note": "[IRIRIRIR]", "values": [{"measurement": "MIC", "setting": "[31]", "result": 12.5, "unit": "µM"}, {"measurement": "MIC", "setting": "[32]", "result": 6.25, "unit": "µM"}, {"measurement": "MIC", "setting": "[16]", "result": 6.25, "unit": "µM"}, {"measurement": "MIC", "setting": "[33]", "result": 28.6, "unit": "µM"}, {"measurement": "MIC", "setting": "[24]", "result": 7.12, "unit": "µM"}, {"measurement": "MIC", "setting": "[34]", "result": 3.56, "unit": "µM"}, {"measurement": "MIC", "setting": "[35]", "result": 6.25, "unit": "µM"}, {"measurement": "MIC", "setting": "[36]", "result": 6.25, "unit": "µM"}]}, {"compound": "CC[C@H](C)[C@H](NC(=O)[C@H](CCCCN)NC(=O)[C@H](Cc1c[nH]c2ccccc12)NC(=O)[C@H](Cc1c[nH]c2ccccc12)NC(=O)[C@@H](N)CCCCN)C(=O)N[C@@H](Cc1c[nH]c2ccccc12)C(=O)N[C@@H](CCCN=C(N)N)C(=O)N[C@@H](Cc1c[nH]c2ccccc12)C(=O)N[C@@H](CCCN=C(N)N)C(=O)O", "note": "[KWWKIWRWR]", "values": [{"measurement": "MIC", "setting": "[20]", "result": 11.1, "unit": "µM"}, {"measurement": "MIC", "setting": "[37]", "result": 22.1, "unit": "µM"}, {"measurement": "MIC", "setting": "[38]", "result": 11.1, "unit": "µM"}, {"measurement": "MIC", "setting": "[39]", "result": 5.54, "unit": "µM"}, {"measurement": "MIC", "setting": "[40]", "result": "≥ 44.3", "unit": "µM"}, {"measurement": "MIC", "setting": "[41]", "result": 22.1, "unit": "µM"}, {"measurement": "MIC", "setting": "[42]", "result": "≥ 88.6", "unit": "µM"}, {"measurement": "MIC", "setting": "[43]", "result": "≥ 44.3", "unit": "µM"}]}, {"compound": "CSCC[C@H](NC(=O)[C@H](CCCCN)NC(=O)[C@H](CCCCN)NC(=O)[C@H](CC(C)C)NC(=O)[C@H](CC(C)C)NC(=O)[C@H](CCCCN)NC(=O)[C@H](CCCCN)NC(=O)[C@H](CC(C)C)NC(=O)[C@@H](N)CC(C)C)C(N)=O", "note": "[LLKKLLKKM]", "values": [{"measurement": "MIC", "setting": "[44]", "result": "≥ 449", "unit": "µM"}, {"measurement": "MIC", "setting": "[45]", "result": "≥ 112", "unit": "µM"}]}]}
